Measurements taken from the RepoRT retention time repository.

Assay: Agilent ZORBAX 300 SB-C18, 150 × 1 mm, 3.5 µm; A: water + 0.01% heptafluorobutyric acid; B: acetonitrile + 0.01% heptafluorobutyric acid; gradient (min/%B) 0/0 100/90
Details: stereoisomer not certain

| LC retention time | Compound |
| --- | --- |
| 11.8 min | OC(Cn1cccc1)c1ccccc1 (stereo not given) |
| 6.88 min | Cc1cncc(C)c1 |
| 16.7 min | O=C(C=Cc1ccccc1)c1cc2ccccc2o1 |
| 6.18 min | Nc1cccnc1N |
| 7.34 min | O=C1NCCCC1C(=O)N1CCN(C(=O)c2ccco2)CC1 (stereo not given) |
| 7.05 min | CC1NC(=O)N(c2cccc(N)c2)C1=O (stereo not given) |
| 8.08 min | Nc1cccc2cc[nH]c12 |
| 7.71 min | O=C1CCCN1c1ccc(O)cc1 |
| 7.79 min | CN(CCc1ccccn1)Cc1ccccn1 |
| 7.62 min | COC(=O)C(N)c1ccccc1 (stereo not given) |
| 11.5 min | Cc1ccc(-c2ccc(CCC(=O)O)n2CC(=O)O)cc1 |
| 6.29 min | NCc1ccc2[nH]c(=O)[nH]c2c1 |
| 9.79 min | Cc1ccc(C=NNC(=O)C(=O)NC(C)C)o1 |
| 8.79 min | CCC(O)(CC)c1ccccc1N |
| 2.23 min | NC(=O)c1cc(O)c(O)c(O)c1 |
| 1.47 min | NC(=O)CC(NC(N)=O)C(=O)O (stereo not given) |
| 8.48 min | NNc1cccc2ncccc12 |
| 13.8 min | CC(=O)C1(O)CCC2C3C=CC4=CC(=O)CCC4(C)C3CCC21C (stereo not given) |
| 13.2 min | CC(=O)Oc1ccc(C(=O)N2CCc3ccccc32)cc1 |
| 9.51 min | CN(C)C(=O)c1ccc(N=CNc2ccc(C(=O)N(C)C)cc2)cc1 |
| 16.1 min | OC(Cc1c[nH]c2ccccc12)(c1ccccc1)c1ccccc1 |
| 8.52 min | COc1c(C)cccc1C(=O)NN |
| 8.55 min | CN(C)CCNC1=CC(=O)CC(c2ccccc2)C1 (stereo not given) |
| 10.1 min | O=C(Cn1cnc2ccccc2c1=O)NN=Cc1cnc2ccccc2n1 |
| 2 min | O=C(O)c1ccncn1 |
| 7.41 min | Cc1cc[n+](CCC(=O)O)c2ccccc12 |

| LC retention time | Compound |
| --- | --- |
| 11.4 min | Oc1ccc(-c2cnc3ccccc3n2)cc1 |
| 13.7 min | COc1ccc2c(=O)cc(-c3ccccc3)oc2c1OC |
| 18.7 min | O=C1CCCc2c1[nH]c1ccc(C3CCCCC3)cc21 |
| 17.1 min | Cc1ccc(NC(=O)COc2ccc(-c3ccccc3)cc2)cc1 |
| 8.61 min | O=c1[nH]c(=O)n(CCc2ccccc2)c2c1CN(C1CCCC1)CN2 |
| 7.46 min | NCCn1cnc2ccccc2c1=O |
| 12.5 min | COc1ccc(N2CC(C(=O)Nc3c(C)cc(C)cc3C)CC2=O)cc1 (stereo not given) |
| 13.2 min | S=C(NCCc1c[nH]c2ccccc12)Nc1ccccc1 |
| 6.19 min | NC(=O)C(O)c1ccccc1 (stereo not given) |
| 11 min | Nc1ccc(C(=O)N2CCC(c3ccccc3)C2)cc1 (stereo not given) |
| 15.3 min | CCCCN(CCCC)C(=O)c1ccc(OC(C)=O)cc1 |
| 7.62 min | Cc1ccccc1N(C)C |
| 13.8 min | O=C(C(Cc1ccccc1)n1cccc1)N1CCCC1 (stereo not given) |
| 10.5 min | c1ccc(-n2ncc(-c3nn[nH]n3)n2)cc1 |
| 6.9 min | CC(=O)Nc1ccc(NC(=O)CCC(=O)O)cc1 |
| 9.57 min | Nc1ncnc(N2CCCc3ccccc32)n1 |
| 14.1 min | Cc1cccc(N2CN(Cc3ccccc3)CNC2=S)c1C |
| 11.7 min | CCn1cc(CCO)c2ccccc21 |
| 13.6 min | O=C(NCCOc1ccccc1)Nc1cccc(NC(=O)NCCOc2ccccc2)c1 |
| 11.5 min | COc1ccc2cnn(-c3ccccc3)c(=O)c2c1OC |
| 15.3 min | Cc1c(C(=O)N(C)c2ccccc2)oc2ccccc12 |
| 9.86 min | Cc1nnc(NN=Cc2ccc(N(C)C)cc2)[nH]c1=O |
| 8.77 min | CCNCC(=O)Nc1c(C)cccc1C |
| 12.7 min | Cc1ccc(C)n1-c1ccccc1CO |
| 17.8 min | O=C(Cc1ccccc1)Nc1ccc(-c2nc(-c3ccccc3)c3cc(NC(=O)Cc4ccccc4)ccc3n2)cc1 |
| 10.8 min | Cc1ccc(NC(=O)C=CC(=O)O)c(C)c1 |

| LC retention time | Compound |
| --- | --- |
| 12.3 min | CC1=NC(=O)NC(C2CC=CCC2)C1C(=O)OC(C)C (stereo not given) |
| 8.47 min | CN(C)c1ccc(C=NNC(=O)Cc2n[nH]c(=O)[nH]c2=O)cc1 |
| 8.07 min | O=C1c2ccccc2C(=O)N1CCN1CCNCC1 |
| 7.45 min | NCC(=O)Nc1ccccc1 |
| 14.9 min | Cc1cccc(C=NNC(=O)c2cc3ccccc3cc2O)c1 |
| 12.6 min | CCCCN1CNC(=S)N(c2ccccc2C)C1 |
| 11.1 min | Nc1ccc(C(=O)Nc2cccc3ccccc23)cc1 |
| 9.79 min | O=Cc1cccc2[nH]ccc12 |
| 5.88 min | O=C(O)CC(CC(=O)O)c1ccccn1 |
| 13.1 min | O=C(CN1C(=O)c2ccccc2C1=O)Nc1ccccc1C(=O)N1CCN(c2ccccc2)CC1 |
| 4.53 min | Cc1ncc[nH]1 |
| 9.48 min | Cc1cc[n+](CCc2ccccc2)cc1C |
| 8.03 min | O=c1c2ccccc2ncn1Cc1ccncc1 |
| 6.42 min | O=C(O)c1cc(-c2ccccc2)c(C(=O)O)cn1 |
| 7.24 min | O=c1[nH]c2ccccc2[nH]c1=S |
| 13.1 min | O=C1CCC=C1CSc1ccccc1 |
| 8.71 min | Nc1nc(N)c2nc(-c3ccccc3)c(N)nc2n1 |
| 18 min | CCCOC(C)n1cccc1-c1ccccc1 (stereo not given) |
| 15.8 min | c1ccc(Oc2nnc(-c3ccccc3)c3ccccc23)cc1 |
| 9.72 min | CCc1ccc(C=NNC(=O)C[n+]2ccccc2)cc1 |
| 11.1 min | CCc1ccccc1NCC(=O)O |
| 10.1 min | Nc1ccccc1C(=O)NN=C1CCCC1 |
| 11.8 min | O=C1OCc2cc(-n3cccc3)ccc21 |
| 11.6 min | CC(=O)Oc1c[nH]c2ccccc12 |
| 6.42 min | CC(=O)N1C(=O)N(C(C)=O)C(O)C1O (stereo not given) |

The next lines start with the compound.

| Compound | LC retention time |
| --- | --- |
| CN(C)CCCNC(=O)C(=O)NC1CC1 | 6.89 min |
| CN1COc2ccc3ccccc3c2C1 | 9.56 min |
| C1=Nc2ccccc2C(c2ccccc2)C1c1ccc2ccccc2n1 (stereo not given) | 11.8 min |
| COC(=O)C(c1ccccc1)C1CCCCN1 (stereo not given) | 9.49 min |
| O=CNC1CCCCC1 | 8.38 min |
| S=c1nc(C2CCCCC2)[nH][nH]1 | 8.76 min |
| CC(C)Cc1ccc(C(C)C(=O)NCCCn2c3ccccc3c3ccccc32)cc1 (stereo not given) | 20.1 min |
| NC1=NC(=Nc2ccc(N3CCOCC3)cc2)c2ccccc21 | 9.27 min |
| Nc1ncnc(N)n1 | 7.16 min |
| CCN1C(=O)CC(N2CCC(n3c(=O)[nH]c4ccccc43)CC2)C1=O (stereo not given) | 8.81 min |
| CCCCCCC(N)=O | 9.68 min |
| C=CC[n+]1ccc2ccccc2c1 | 7.67 min |
| COc1ccc2c(c1)C13CCCCC1C(C2)N(C)CC3 (stereo not given) | 10.6 min |
| CCn1c(C)cc(C=O)c1C | 9.93 min |
| CCCCC1CCC(C(=O)NCC2(N(C)C)CCCCC2)CC1 (stereo not given) | 12.4 min |
| CC(=O)C=CC=C(C)CCC=C(C)C | 17.1 min |
| S=c1[nH]c(-c2ccccc2)c(-c2ccccc2)n1-c1ccccc1 | 14.4 min |
| Cn1c(=O)c2c(-c3ccccc3)n(Cc3ccccc3)cc2n(C)c1=O | 14.3 min |
| CN(C)c1ccc(C=NNc2nc3ccccc3c(=O)n2-c2ccccc2)cc1 | 14.3 min |
| NCC1CCCCC1 | 8.08 min |
| Cc1cc(-c2noc(C(c3ccccc3)c3ccccc3)n2)c2ccccc2n1 | 16.9 min |
| COC(=O)CCNC(C)Cc1ccccc1 (stereo not given) | 8.9 min |
| Cc1cccc(N)c1C | 8.05 min |
| CC(CCc1ccccc1)NCc1ccco1 (stereo not given) | 9.89 min |
| NCCCCCCCCN | 7.2 min |
| CC(=O)NC(NC(C)=O)NC(C)=O | 1.91 min |
| Cc1cc(C)nc(Nc2n[nH]c(C)n2)n1 | 8.05 min |

| Compound | LC retention time |
| --- | --- |
| C[N+](C)(CCOCc1ccccc1)CCOCc1ccccc1 | 11.7 min |
| CCCC(N)=O | 4.71 min |
| CC1CCCN(CC(O)CN)C1 (stereo not given) | 7.32 min |
| C=CCN(CC=C)CC=C | 7.98 min |
| C[N+]12CCC(CC1)C1CC(O)CCC12 (stereo not given) | 6.39 min |
| Cn1c2c(c(=O)n(C)c1=O)C1c3ccccc3OCC1C(C)(C)O2 (stereo not given) | 13.2 min |
| Cc1nn[nH]n1 | 2.16 min |
| CCOC(=O)c1ccc2c(c1)C(=O)N(c1cccc3ccccc13)C2=O | 16.2 min |
| Cc1ccc2c(c1)C1CN(C)CCC1N2C(=S)NC1CCCCC1 (stereo not given) | 12.2 min |
| CC=CC(=O)CC | 9.41 min |
| CC(C)c1ccccc1NC(=S)NCCN1CCN(C(=S)Nc2ccccc2C(C)C)CC1 | 12.5 min |
| CN(C)CCCN1c2ccccc2CCc2ccccc21 | 11.6 min |
| CCn1c(C)c(C(C)=O)c(C(C)=O)c1C | 9.56 min |
| CC(C)OC(=O)C(C)Nc1n[nH]c(=O)[nH]c1=O (stereo not given) | 8.55 min |
| C#CCN(C)C | 4.22 min |
| C1CCCNCCC1 | 7.37 min |
| COc1cccc(C2C3=C(CC(C)(C)CC3=O)OC3=C2C(=O)CC(C)(C)C3)c1OC | 16.5 min |
| CN(C)CCN(C)C | 7.04 min |
| CCn1c(C)n[nH]c1=S | 6.98 min |
| CCCC(C)N (stereo not given) | 7.09 min |
| CN(C)C1CCCCC1 | 7.57 min |
| CN(C)CCCNCCCN(C)C | 7.49 min |
| NC1CCOC1=O (stereo not given) | 3.11 min |
| CN1c2ccccc2CCc2cc(C=O)ccc21 | 16.3 min |
| CCN(CCCc1ccccc1)CCCc1ccccc1 | 12.5 min |
| COc1cc(CCN)cc(OC)c1OC | 8.22 min |
